Results reported in patent publication US10328012B2, “Methods for treating skin” (AVON PRODUCTS, INC., priority 2015, dated 2019).
“Also recorded” adds a separate entry of the source.

Tests used:
[1] = tested on: human dermal fibroblast (HDF) cells; assay: HA in human dermal fibroblasts, daily vs pulsed treatment (Example 17); format: cell-based; details: 12 days; pulsed uses half as much active
Experimental: A series of experiments was conducted to assess the effects of different treatment regimens of active ingredients shown in Table 9 on the production of hyaluronic acid (HA) in human dermal fibroblast (HDF) cells. Two different treatment regimens were assessed: (1) active ingredient A applied to cells for 12 consecutive days; and (2) active ingredient applied to cells for 2 consecutive days followed by application of media not containing active ingredient for two consecutive days repeatedly until treatment is applied for 12 consecutive days. […] After reaching about 75% confluence, cells were transferred into DMEM media without FBS, and incubated for 4-6 hours. Different wells were assigned to one of treatment regimens (1)-(2) as described above, with six wells allocated to each treatment regimen. All active ingredients were prepared as emulsions and applied directly to the HDF cells. The specific active ingredients used in each of the two treatment regimens are provided below in Table 10. Following treatment, cells were collected and the amount of hyaluronic acid (HA) secreted from the cells was measured using a commercially available HA assay (available from […] Inc., CO).

[2] = tested on: Human dermal fibroblast cells; assay: Pro-collagen I secreted by human dermal fibroblasts, HTRF human pro-collagen I kit (Example 1); format: cell-based; details: 0.0001% phytol alone or 1 μM retinol alone for 16 days; decline after day 13 despite continuing treatment
Experimental: Human dermal fibroblast cells were grown in a 6-well plate in DMEM media (available from CORNING, N.Y.) supplemented with 10% Fetal Bovine Serum (FBS) and L-glutamine (1.5×10^5 cells/plate) overnight. After reaching about 75% confluence, cells were transferred into DMEM media without FBS and incubated for 4-6 hours. Next, the cells were treated with either 0.0001% phytol or 1 μM retinol. Treatment with either phytol alone, or retinol alone was performed in DMEM media without FBS for 16 days. For sequential treatments, the cells were treated with 0.0001% phytol for 6 days followed by 1 μM retinol for 10 days, or with 1 μM retinol for 6 days, followed by 0.0001% phytol for 10 days. Every other day, media were collected and cells were re-treated with phytol or retinol in the same fashion. After treatment, the amount of collagen secreted into the culture media was determined using the HTRF human pro-collagen I kit (available from CISBIO, Inc).

Structure (SMILES): O=C(O)CO [Glycolic Acid]
- production of hyaluronic acid, pulsed treatment compared with daily treatment [1]: only slightly less effective

Structure (SMILES): C/C(=C\CO)CCC[C@H](C)CCC[C@H](C)CCCC(C)C [Phytol]
- pro-collagen I production as a function of treatment time [2]: declines; also recorded: plateau in effectiveness over time
- production of hyaluronic acid, pulsed treatment compared with daily treatment [1]: significantly more production of hyaluronic acid

Structure (SMILES): CC1=C(/C=C/C(C)=C/C=C/C(C)=C/CO)C(C)(C)CCC1 [Retinol, reference compound]
- pro-collagen I production as a function of treatment time [2]: declines; also recorded: plateau in effectiveness over time
- production of hyaluronic acid, pulsed treatment compared with daily treatment [1]: significantly more production of hyaluronic acid
